Measured values as given in patent US9062125B2, “Use of GIP for the treatment of disorders associated with dysfunctional synaptic transmission” (Innovation Ulster Limited, priority 2007, dated 2015).
Non-standard residues stand in square brackets, D forms with d. No end group written: not given here. *: point of attachment. mPEG = mini-PEG HO—(CH2—O—CH2)n—H, n about 3; Myristoyl = CCCCCCCCCCCCCC(=O)*

Key:
Parameters in all cases: species or system rat
Male Wistar rats [1] = test: In vivo LTP in hippocampal CA1 (field EPSP slope), strong HFS protocol, icv injection
From the text: (§1) Male Wistar rats weighing 220-280 g were anaesthetised with urethane (ethyl carbamate, 1.8 g/kg, i.p.) for the duration of all experiments. The animals had been obtained from Harlan, United Kingdom (UK).
(§2) A cannula (22 gauge, 0.7 mm outer diameter, 11 mm in length, Bilaney, Kent, UK) was implanted (1.5 mm anterior to bregma, 0.5 mm lateral to the midline and 3.55 mm ventral) into the left hemisphere for intracerebroventricular (icv) injections. Electrodes (tungsten with Teflon coating, Bilaney, Kent, UK) were implanted unilaterally 3.4 mm posterior and 2.5 mm lateral to the midline, and the stimulating electrode 4.2 mm posterior to bregma and 3.8 mm lateral to the midline. […] Recordings of EPSPs were made from the stratum radiatum in the CA1 region of the right hippocampal hemisphere in response to stimulation of the Schaffer collateral/commissural pathway.
(§3) Field EPSPs were recorded on a computerised stimulating and recording unit (PowerLab, ADI instruments, UK) in which the trigger threshold was adjustable. The triggered unit activated a constant current stimulus isolation unit (Neurolog, UK). The data acquisition system was triggered simultaneously to record all events. Sampling speed was at 20 kHz recording of EPSPs.
(§4) The ‘strong’ high frequency stimulation (HFS) protocol for inducing LTP consisted of 3 trains of 200 stimuli, inter-stimulus interval 5 ms (200 Hz), inter-train interval 2 sec. […] The ‘weak’ HFS protocol for inducing LTP consisted of 10 trains of 10 stimuli, inter-stimulus interval 5 ms (200 Hz). The strong HFS was used to test the effects of peptides that impair LTP (beta-amyloid), and the weak HFS was used to test peptides that facilitate LTP. In this form of LTP, the control group is not potentiated at a maximal rate, and LTP can decay slowly over time.
(§5) Stimulation intensity was 70% of the maximum EPSP. LTP was measured as a % of baseline EPSP slope recorded over a 30 min period prior to drug injection and 60 min prior to application of HFS. Baseline was recorded for 30 min and averaged. This value was taken as 100% of the EPSP slope and all recoded values were normalised to this baseline value.
Beta-amyloid(25-35) and other peptides used in this study were synthetised on an Applied Biosystems automated peptides synthesiser (Model 432A) using standard solid-phase Fmoc protocols. […]
(§6) Each group consisted of 6 animals. Data were analysed using a repeated measures two-way ANOVA, or a repeated measures three level two-way ANOVA with post-hoc tests to discriminate between groups (PRISM, GraphPad software Inc, USA).

Male Wistar rats [2] = test: In vivo LTP in hippocampal CA1 (field EPSP slope), weak HFS protocol, icv injection; conditions: 15 nmol icv, LTP induced 30 min post-injection, n=6
From the text: as §1, §2, §3, §4, §5
Beta-amyloid(25-35) and other peptides used in this study were synthetised on an Applied Biosystems automated peptides synthesiser (Model 432A) using standard solid-phase Fmoc protocols. Peptides were judged pure by reversed phase HPLC on a Waters Millennium 2010 chromatography system, and peptides were subsequently characterised using matrix-assisted laser desorption/ionisation time of flight (MALDI-TOF) mass spectrometry as described previously (Gengler et al., 2006; Hölscher et al., 2007). Peptides were stored in dry form and dissolved in double distilled water before the experiments. 5 μl of peptide solution was injected icv.
as §6

Male Wistar rats [3] = test: In vivo prevention of beta-amyloid(25-35)-induced impairment of LTP in hippocampal CA1; conditions: n=6, FIG. 5
From the text: as §1
A cannula (22 gauge, 0.7 mm outer diameter, 11 mm in length, Bilaney, Kent, UK) was implanted (1.5 mm anterior to bregma, 0.5 mm lateral to the midline and 3.55 mm ventral) into the left hemisphere for intracerebroventricular (icv) injections. Electrodes (tungsten with Teflon coating, Bilaney, Kent, UK) were implanted unilaterally 3.4 mm posterior and 2.5 mm lateral to the midline, and the stimulating electrode 4.2 mm posterior to bregma and 3.8 mm lateral to the midline. […]
Field EPSPs were recorded on a computerised stimulating and recording unit (PowerLab, ADI instruments, UK) in which the trigger threshold was adjustable. […]
Stimulation intensity was 70% of the maximum EPSP. LTP was measured as a % of baseline EPSP slope recorded over a 30 min period prior to drug injection and 60 min prior to application of HFS. Baseline was recorded for 30 min and averaged. […]
Each group consisted of 6 animals. Data were analysed using a repeated measures two-way ANOVA, or a repeated measures three level two-way ANOVA with post-hoc tests to discriminate between groups (PRISM, GraphPad software Inc, USA). […]

[4] = 15 nmol icv, LTP induced 30 min post-injection, n=6

Substance: Ala(1)GIP: human GIP(1-42) in which Tyr at position 1 has been replaced with L-Ala (AAEGTFISDYSIAMDKIHQQDFVNWLLAQKGKKNDWKHNITQ; Synthetic analogue derived from human GIP(1-42))
- effect on long-term potentiation (LTP; change in EPSP) compared with control (Male Wistar rats [1]; [4]): attenuated long-term potentiation (LTP) compared with control

Substance: D-Ala(2)GIP: human GIP(1-42) in which L-Ala at position 2 has been replaced with D-Ala (Y[dA]EGTFISDYSIAMDKIHQQDFVNWLLAQKGKKNDWKHNITQ)
- effect on long-term potentiation (LTP; change in EPSP) compared with control (Male Wistar rats [2]): enhanced long-term potentiation (LTP) compared with control

Substance: GIP: Human gastric inhibitory polypeptide, full length 42 amino acid peptide, SEQ ID NO: 1 (YAEGTFISDYSIAMDKIHQQDFVNWLLAQKGKKNDWKHNITQ; listed as Homo sapiens)
- effect on long-term potentiation (LTP; change in EPSP) compared with control (Male Wistar rats [2]): increased long-term potentiation (LTP) compared with control

Substance: GIP[Lys(37)Myristic acid]: GIP analogue created by Myristic acid addition at an epsilon amino group of Lys(37) (YAEGTFISDYSIAMDKIHQQDFVNWLLAQKGKKNDWK(Myristoyl)HNITQ; UniProt P09681 52-93, looked up)
- effect on long-term potentiation (LTP; change in EPSP) compared with control (Male Wistar rats [2]): enhanced long-term potentiation (LTP) compared with control

Substance: GIP[mPEG]: C-terminal mini-PEGylated human GIP(1-42), polymer moiety HO—(CH2—O—CH2)n—H, n about 3 (YAEGTFISDYSIAMDKIHQQDFVNWLLAQKGKKNDWKHNITQ-mPEG; UniProt P09681 52-93, looked up)
- effect on long-term potentiation (LTP; change in EPSP) compared with control (Male Wistar rats [2]): enhanced long-term potentiation (LTP) compared with control

Substance: N-AcGIP: N-terminally acetylated human GIP(1-42)
- effect on βA(25-35)-induced impairment of LTP (Male Wistar rats [3]; 15 nmol icv, 100 nmol βA(25-35) injected 30 min later, LTP induced 15 min post-βA injection, p<0.001 vs βA group): attenuated the βA(25-35)-induced impairment of LTP
- effect on long-term potentiation (LTP; change in EPSP) compared with control (Male Wistar rats [2]): enhanced long-term potentiation (LTP) compared with control

Substance: Pro(3)GIP: human GIP(1-42) in which Glu at position 3 has been replaced with L-Pro (YAPGTFISDYSIAMDKIHQQDFVNWLLAQKGKKNDWKHNITQ; Synthetic analogue derived from human GIP(1-42))
- effect on long-term potentiation (LTP; change in EPSP) compared with control (Male Wistar rats [1]; [4]): attenuated long-term potentiation (LTP) compared with control

Substance: βA(25-35): beta-amyloid fragment 25-35, synthesised peptide used to impair LTP (GSNKGAIIGLM; Amyloid-beta protein 42; UniProt P05067 696-706, looked up, fragment) [reference compound]
- effect on LTP compared with control (Example 5 experiment) (Male Wistar rats [3]; 100 nmol icv alone, LTP induced 15 min post-injection, p<0.001): difference between the βA(25-35) group and control
- effect on long-term potentiation (LTP; change in EPSP) compared with control (Male Wistar rats [1]; 10 nmol icv, LTP induced 15 min post-injection, p<0.01, n=6, FIG. 2): impaired long-term potentiation (LTP) compared with control
- effect on long-term potentiation (LTP; change in EPSP) compared with control (Male Wistar rats [1]; 100 nmol icv, LTP induced 15 min post-injection, p<0.005, n=6, FIG. 2): LTP development was also impaired
